Results taken from patent US20240208961A1, “EIF4E INHIBITORS AND USES THEREOF” (PIC Therapeutics, Inc., priority 2022, published 2024).

Legend:
Type in all cases: cell-based
ZR-75-1 = ZR-75-1 compound screening cell viability, Alamar Blue (Example 6); details: Homo sapiens, 96 h, ZR-75-1 cells, Media 1% FBS, read-out: ZR-75-1 Cell Viability, 4 Days: IC50
NIHOVCAR3 = assay: Cell viability assay, adherent cell line, 5 day Alamar Blue (Example 8): NIHOVCAR3; details: Homo sapiens, OVCAR-3, 120 h, OVCAR3, Ovarian Cancer Cell
Protocol: (§1) Cell viability assays were performed on certain compounds of the disclosure, according to the following procedure.
(§2) Cell line specific media conditions used:
(§3) The procedure for adherent cell line compound screening was as follows:
(§4) • Cells were seeded in 96-well cell culture treated tissue culture plates: ZR-75-1, NIHOVCAR3, T47D, and LOVO cells 4000 cells/well; and HPAFII 3000 cell/well
(§5) Day 3: Compound Dilution and Dosing
(§6) • 5-fold serial dilution (8 point) of each compound in DMSO 0-25 mM in compound storage plates was prepared (stored at −80° C. if not to be used immediately). • Cells were rinsed with 1% FBS Media (appropriate to cell line as described above) and replaced with 87.5 μL media prior to dosing. HPAFII was screened in normal 10% FBS Media. • DMSO compound dilution series was diluted in 1% FBS media (appropriate to cell line as described above)—2 μL in 248 μL to give an 8× final concentration. • Cells were dosed 12.5 μL/well in triplicate to give final dose curved on cells 0-25 μM. • Media blank 100 μL/well×8 was set up. • All plates were incubated at 37° C.
(§7) Day 8: 5 Day Viability Assay
(§8) • Alamar Blue viability reagent was added (10 μL per well) and incubated for 3 hours at 37° C. prior to fluorescence detection (Ex560 nm/Em590 nm) on a Varioskan Lux multimode plate reader.
(§9) Results from cell viability assays are summarized in Table 23, wherein A represents IC50≤1 μM; B represents 1 μM<IC50≤8 μM; and C represents IC50>8 μM. Blank cells indicate that the compound was not tested in a particular assay.

LoVo = assay: Cell viability assay, adherent cell line, 5 day Alamar Blue (Example 8): LoVo; details: Homo sapiens, 120 h, Colorectal Cancer Cell Viability
Protocol: as §1, §2, §3, §4, §5, §6, §7, §8, §9

HPAFII = assay: Cell viability assay, adherent cell line, 5 day Alamar Blue (Example 8): HPAFII; details: Homo sapiens, HPAF-II, 120 h, Pancreatic Cancer Cell
Protocol: as §1, §2, §3, §4, §5, §6, §7, §8, §9

MM.1S = assay: Cell viability assay, suspension cell line, 5 day Alamar Blue (Example 8): MM.1S; details: Homo sapiens, MM1.S, 120 h, Multiple Myeloma (Steroid Sensitive) Cancer Cell
Protocol: as §1, §2
(§10) The procedure for suspension cell line compound screening was as follows:
(§11) Day 1: Cell Seeding and Compound Dosing
as §6, with “• Cells were seeded 2×10^5 in 96-well cell culture treated tissue culture plates: 87.5 μL/well; MM.1 S, MM,1R, NCIH510A. • 5-fold” for “• 5-fold”, “to dosing. • DMSO” for “to dosing. HPAFII was screened in normal 10% FBS Media. • DMSO”
(§12) Day 6: 5 Day Viability Assay
as §8, §9

MM.1R = assay: Cell viability assay, suspension cell line, 5 day Alamar Blue (Example 8): MM.1R; details: 120 h, Multiple Myeloma (Steroid Resistant) Cancer Cell
Protocol: as §1, §2, §10, §11
as §6, with “• Cells were seeded 2×10^5 in 96-well cell culture treated tissue culture plates: 87.5 μL/well; MM.1 S, MM,1R, NCIH510A. • 5-fold” for “• 5-fold”, “to dosing. • DMSO” for “to dosing. HPAFII was screened in normal 10% FBS Media. • DMSO”
as §12, §8, §9

SMILES | IC50 (ZR-75-1) [nM] | IC50 (NIHOVCAR3) [nM] | IC50 (LoVo) [nM] | IC50 (HPAFII) [nM] | IC50 (MM.1S) [nM] | IC50 (MM.1R) [nM]
CC(C)Cc1sc(Nc2ncc(-c3cccs3)cc2C(=O)O)nc1C1CCCCC1 [Compound I-3] | < 1000 | 1000 to 8000 | 1000 to 8000 | ≤ 1000 | 1000 to 8000 | 1000 to 8000
CC(C)Cc1sc(Nc2ncc(-c3cccs3)cc2C(=O)O)nc1C1=CCCC1 [Compound I-8] | – | ≤ 1000 | ≤ 1000 | ≤ 1000 | ≤ 1000 | ≤ 1000
CC(C)Cc1sc(Nc2ncc(-c3cccs3)cc2C(=O)O)nc1C(C)(C)C [Compound I-11] | < 1000 | ≤ 1000 | ≤ 1000 | ≤ 1000 | ≤ 1000 | ≤ 1000
CC(C)Cc1sc(Nc2ncc(-c3cccs3)cc2C(=O)O)nc1C1(C)CCCCC1 [Compound I-27] | – | 1000 to 8000 | ≤ 1000 | 1000 to 8000 | 1000 to 8000 | 1000 to 8000
CC(C)Cc1sc(Nc2ncc(-c3cccs3)cc2C(=O)O)nc1C1CCC(F)(F)CC1 [Compound I-29] | – | 1000 to 8000 | 1000 to 8000 | 1000 to 8000 | 1000 to 8000 | 1000 to 8000
